Reference: ChEMBL document CHEMBL4725392, “Orally Bioavailable Small-Molecule CD73 Inhibitor (OP-5244) Reverses Immunosuppression through Blockade of Adenosine Production” (J Med Chem, 2020)

What was measured:
5'-nucleotidase [1] = target: T1, 5'-nucleotidase (Homo sapiens, UniProt P21589); test: Inhibition of human C-terminal His6-tagged CD73 expressed in CHO cells preincubated for 15 mins followed by AMP addition and measured after 10 mins by malachite green reagent based assay; assay type: cell-based
5'-nucleotidase [2] = target: T1, 5'-nucleotidase; test: Inhibition of CD73 in human NCI-H1568 cells assessed as reduction in AMP-induced ADO expression preincubated for 15 mins followed by AMP addition and measured after 1 hr by LC-MS/MS analysis; assay type: cell-based
5'-nucleotidase [3] = target: T2, 5'-nucleotidase (Mus musculus, UniProt Q61503); test: Inhibition of CD73 in mouse EMT6 cells assessed as reduction in AMP-induced ADO expression preincubated for 15 mins followed by AMP addition and measured after 1 hr by LC-MS/MS analysis; assay type: cell-based
T2 sequence (Q61503 whole entry): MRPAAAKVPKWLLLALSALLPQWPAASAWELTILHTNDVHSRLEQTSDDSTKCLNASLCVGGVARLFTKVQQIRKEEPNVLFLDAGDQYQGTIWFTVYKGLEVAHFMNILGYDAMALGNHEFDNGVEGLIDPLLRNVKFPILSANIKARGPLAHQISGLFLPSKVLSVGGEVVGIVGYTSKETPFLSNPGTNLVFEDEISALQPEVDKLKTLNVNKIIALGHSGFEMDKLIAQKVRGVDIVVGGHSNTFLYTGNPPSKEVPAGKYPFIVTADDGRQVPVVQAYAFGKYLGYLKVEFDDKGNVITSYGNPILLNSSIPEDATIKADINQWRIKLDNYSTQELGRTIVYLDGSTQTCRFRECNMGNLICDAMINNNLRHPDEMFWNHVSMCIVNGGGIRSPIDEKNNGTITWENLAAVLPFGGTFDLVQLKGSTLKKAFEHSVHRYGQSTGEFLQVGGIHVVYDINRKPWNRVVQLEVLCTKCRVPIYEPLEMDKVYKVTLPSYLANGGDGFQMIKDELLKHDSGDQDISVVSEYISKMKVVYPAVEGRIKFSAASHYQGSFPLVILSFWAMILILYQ

[4] = Terminal half life in rat at 50 mg/kg, po; assay type: ADME, organism-based; conditions: in vivo, read-out: beta t1/2 (converted)
[5] = Cmax in rat at 50 mg/kg, po; assay type: ADME, organism-based; set-up: route oral, dose 50 mg/kg; conditions: in vivo
[6] = AUC infinity in rat at 50 mg/kg, po; assay type: ADME, organism-based; set-up: time infinity, route oral, dose 50 mg/kg; conditions: in vivo
[7] = AUC infinity in mouse at 200 mg/kg, po; assay type: ADME, organism-based; set-up: route oral, time infinity, dose 200 mg/kg; conditions: in vivo
[8] = Terminal half life in mouse at 200 mg/kg, po; assay type: ADME, organism-based; conditions: in vivo, read-out: beta t1/2 (converted)
[9] = Cmax in mouse at 200 mg/kg, po; assay type: ADME, organism-based; set-up: route oral, dose 200 mg/kg; conditions: in vivo

T1 sequence (P21589 whole entry): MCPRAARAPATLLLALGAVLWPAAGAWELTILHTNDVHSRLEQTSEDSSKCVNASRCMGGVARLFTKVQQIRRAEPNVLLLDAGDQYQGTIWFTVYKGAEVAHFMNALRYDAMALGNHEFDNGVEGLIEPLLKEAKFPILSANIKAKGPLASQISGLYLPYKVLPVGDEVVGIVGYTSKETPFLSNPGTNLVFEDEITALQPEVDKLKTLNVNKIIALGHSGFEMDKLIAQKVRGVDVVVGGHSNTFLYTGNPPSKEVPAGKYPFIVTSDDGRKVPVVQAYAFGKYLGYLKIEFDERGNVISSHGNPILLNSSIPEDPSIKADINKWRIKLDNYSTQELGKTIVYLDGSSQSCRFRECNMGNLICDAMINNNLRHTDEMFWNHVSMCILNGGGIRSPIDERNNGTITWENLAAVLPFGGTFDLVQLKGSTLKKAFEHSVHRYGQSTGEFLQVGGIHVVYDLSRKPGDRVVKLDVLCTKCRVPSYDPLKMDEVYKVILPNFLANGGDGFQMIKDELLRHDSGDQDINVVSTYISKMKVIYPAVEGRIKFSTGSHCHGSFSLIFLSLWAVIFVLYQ

Row | Compound | IC50 (5'-nucleotidase [1]) [nM] | other results
1 | CS(=O)(=O)C(OC[C@H]1O[C@@H](n2ncc3c(NC4CCCC4)nc(Cl)nc32)[C@H](O)[C@@H]1O)P(=O)(O)O (mixture of isomers) | 193 | 
2 | CN(C[C@H]1O[C@@H](n2ncc3c(NCc4ccccc4Cl)nc(Cl)nc32)[C@H](O)[C@@H]1O)C(=O)CP(=O)(O)O | 248 | 
3 | COCC(CO)(OC[C@H]1O[C@@H](n2ncc3c(NC4CCCC4)nc(Cl)nc32)[C@H](O)[C@@H]1O)P(=O)(O)O (mixture of isomers) | 0.53 | 
4 | O=C(O)C(OC[C@H]1O[C@@H](n2ncc3c(NC4CCCC4)nc(Cl)nc32)[C@H](O)[C@@H]1O)P(=O)(O)O (mixture of isomers) | 108 | 
5 | O=P(O)(O)CSC[C@H]1O[C@@H](n2ncc3c(NCc4ccccc4Cl)nc(Cl)nc32)[C@H](O)[C@@H]1O | 164 | 
6 | O=P(O)(O)COC[C@H]1O[C@@H](n2ncc3c(NC4CCCC4)nc(Cl)nc32)[C@H](O)[C@@H]1O | 11 | 
7 | CSCC(C)(OC[C@H]1O[C@@H](n2ncc3c(NC4CCCC4)nc(Cl)nc32)[C@H](O)[C@@H]1O)P(=O)(O)O (mixture of isomers) | 10 | 
8 | CC(CO)(OC[C@H]1O[C@@H](n2ncc3c(NC4CCCC4)nc(Cl)nc32)[C@H](O)[C@@H]1O)P(=O)(O)O (mixture of isomers) | 1.3 | 
9 | CN(Cc1ccccc1)c1nc(Cl)nc2c1ncn2[C@@H]1O[C@H](COP(=O)(O)CP(=O)(O)O)[C@@H](O)[C@H]1O | 3 | 
10 | O=P(O)(O)CP(=O)(O)OC[C@H]1O[C@@H](n2nnc3c(NCc4ccccc4Cl)nc(Cl)nc32)[C@H](O)[C@@H]1O | 3.9 | 
11 | Nc1ncnc2c1ncn2[C@@H]1O[C@H](COP(=O)(O)CP(=O)(O)O)[C@@H](O)[C@H]1O [PHOSPHOMETHYLPHOSPHONIC ACID ADENOSYL ESTER] | 2650 | EC50 (5'-nucleotidase [2]): 16300 nM
12 | O=P(O)(O)COCC[C@H]1O[C@@H](n2ncc3c(NCc4ccccc4Cl)nc(Cl)nc32)[C@H](O)[C@@H]1O | 1200 | 
13 | C[C@](CO)(OC[C@H]1O[C@@H](n2ncc3c(NC4CCCC4)nc(Cl)nc32)[C@H](O)[C@@H]1O)P(=O)(O)O | 11.7 | 
14 | O=P(O)(O)C(CO)OC[C@H]1O[C@@H](n2ncc3c(NC4CCCC4)nc(Cl)nc32)[C@H](O)[C@@H]1O (mixture of isomers) | 2.4 | 
15 | O=P(O)(O)CCOC[C@H]1O[C@@H](n2ncc3c(NCc4ccccc4Cl)nc(Cl)nc32)[C@H](O)[C@@H]1O | 88 | 
16 | COP(=O)(O)CP(=O)(O)OC[C@H]1O[C@@H](n2ncc3c(NCc4ccccc4Cl)nc(Cl)nc32)[C@H](O)[C@@H]1O | 131 | 
17 | O=P(O)(O)CS(=O)(=O)NC[C@H]1O[C@@H](n2ncc3c(NCc4ccccc4Cl)nc(Cl)nc32)[C@H](O)[C@@H]1O | 328 | 
18 | CN(c1nc(Cl)nc2c1cnn2[C@@H]1O[C@H](COP(=O)(O)CP(=O)(O)O)[C@@H](O)[C@H]1O)[C@H]1CCc2ccccc21 | 0.52 | 
19 | O=P(O)(O)C(OC[C@H]1O[C@@H](n2ncc3c(NC4CCCC4)nc(Cl)nc32)[C@H](O)[C@@H]1O)c1nnn[nH]1 (mixture of isomers) | 28 | 

Row | Compound | IC50 (5'-nucleotidase [1]) [nM] | other results
20 | COP(=O)(O)CP(=O)(OC)OC[C@H]1O[C@@H](n2ncc3c(NCc4ccccc4Cl)nc(Cl)nc32)[C@H](O)[C@@H]1O (some centres undefined) | 2870 | 
21 | COP(=O)(CP(=O)(O)O)OC[C@H]1O[C@@H](n2ncc3c(NCc4ccccc4Cl)nc(Cl)nc32)[C@H](O)[C@@H]1O (some centres undefined) | 24.7 | 
22 | CC(CS(C)(=O)=O)(OC[C@H]1O[C@@H](n2ncc3c(NC4CCCC4)nc(Cl)nc32)[C@H](O)[C@@H]1O)P(=O)(O)O (mixture of isomers) | 23 | 
23 | C[C@H](Nc1cc(Cl)nc2c1cnn2[C@@H]1O[C@H](COP(=O)(O)CP(=O)(O)O)[C@@H](O)[C@H]1O)c1ccccc1F |  | EC50 (5'-nucleotidase [3]): 198 nM
24 | O=P(O)(O)COC[C@H]1O[C@@H](n2ncc3c(NCc4ccccc4Cl)nc(Cl)nc32)[C@H](O)[C@@H]1O | 29 | half-life [4]: 1.9 h; Cmax [5]: 0.11 µM; AUC(0-inf) [6]: 0.66 µM·h
25 | N#CC(OC[C@H]1O[C@@H](n2ncc3c(NC4CCCC4)nc(Cl)nc32)[C@H](O)[C@@H]1O)P(=O)(O)O (mixture of isomers) | 559 | 
26 | CN(c1nc(Cl)nc2c1nnn2[C@@H]1O[C@H](COP(=O)(O)CP(=O)(O)O)[C@@H](O)[C@H]1O)[C@H]1CCc2ccccc21 | 1.3 | 
27 | CN(C)CC(C)(OC[C@H]1O[C@@H](n2ncc3c(NC4CCCC4)nc(Cl)nc32)[C@H](O)[C@@H]1O)P(=O)(O)O (mixture of isomers) | > 5000 | 
28 | COC[C@@](CO)(OC[C@H]1O[C@@H](n2ncc3c(NC4CCCC4)nc(Cl)nc32)[C@H](O)[C@@H]1O)P(=O)(O)O | 1 | 
29 | CN(CC(C)(OC[C@H]1O[C@@H](n2ncc3c(NC4CCCC4)nc(Cl)nc32)[C@H](O)[C@@H]1O)P(=O)(O)O)S(C)(=O)=O (mixture of isomers) | 97 | 
30 | O=P(O)(O)CS(=O)(=O)C[C@H]1O[C@@H](n2ncc3c(NCc4ccccc4Cl)nc(Cl)nc32)[C@H](O)[C@@H]1O | 13 | half-life [4]: 3 h; Cmax [5]: 0.06 µM; AUC(0-inf) [6]: 0.54 µM·h
31 | C[C@@](CO)(OC[C@H]1O[C@@H](n2ncc3c(NC4CCCC4)nc(Cl)nc32)[C@H](O)[C@@H]1O)P(=O)(O)O | 0.51 | AUC(0-inf) [7]: 54.2 µM·h; EC50 (5'-nucleotidase [3]): 41 nM; EC50 (5'-nucleotidase [2]): 6.9 nM; half-life [8]: 2.88 h; Cmax [9]: 54.9 µM
32 | O=C(CP(=O)(O)O)OC[C@H]1O[C@@H](n2ncc3c(NCc4ccccc4Cl)nc(Cl)nc32)[C@H](O)[C@@H]1O | 510 | 
33 | COCC(OC[C@H]1O[C@@H](n2ncc3c(NC4CCCC4)nc(Cl)nc32)[C@H](O)[C@@H]1O)P(=O)(O)O (mixture of isomers) | 0.96 | 
34 | CC(OC[C@H]1O[C@@H](n2ncc3c(NC4CCCC4)nc(Cl)nc32)[C@H](O)[C@@H]1O)P(=O)(O)O (mixture of isomers) | 18 | 
35 | CC(CCO)(OC[C@H]1O[C@@H](n2ncc3c(NC4CCCC4)nc(Cl)nc32)[C@H](O)[C@@H]1O)P(=O)(O)O (mixture of isomers) | 31 | 
36 | O=P(O)(O)C(CO)(CO)OC[C@H]1O[C@@H](n2ncc3c(NC4CCCC4)nc(Cl)nc32)[C@H](O)[C@@H]1O | 0.57 | AUC(0-inf) [7]: 95.6 µM·h; EC50 (5'-nucleotidase [3]): 46 nM; EC50 (5'-nucleotidase [2]): 3.7 nM; half-life [8]: 3.3 h; Cmax [9]: 67.4 µM
37 | O=P(O)(O)C(OC[C@H]1O[C@@H](n2ncc3c(NC4CCCC4)nc(Cl)nc32)[C@H](O)[C@@H]1O)C(F)(F)F (mixture of isomers) | 387 | 
